Tested on: 624824-186-R-J3-PDC multicell spheroids, viability
Assay: Anticancer human tumor 624824-186-R-J3-PDC patient-derived colon adenocarcinoma cell line growth inhibition [PI3K]
Details: for IC50: curve of first compound; for viability, T/C: stronger effect = lower value
Excerpt: Combinatorial screen of targeted agents with the PI3K inhibitors inavolisib, alpelisib, duvelisib, and copanlisib in multi-cell type tumor spheroids
A high-throughput screen of multi-cell type tumor spheroids was designed to identify active combinations of targeted small molecules and PI3K pathway inhibitors. Complex spheroids include a stromal component modeled by human endothelial cells (HUVEC) and fibroblasts modeled by human mesenchymal stem cells (MSCs). The concentration ranges selected for each drug and investigational agent were based upon clinically achievable concentrations if the clinical Cmax of the agent was known.
Compounds. The drugs and investigational agents: inavolisib (NSC800729), alpelisib (NSC765974), duvelisib (NSC772469), copanlisib (NSC816437), ipatasertib (NSC767898), afuresertib (NSC778305), talazoparib (NSC767125), sapanisertib (NSC764658), selumetinib (NSC741078), tovorafenib (DAY101, NSC766906), vemurafenib (NSC761431), ravoxertinib (NSC781343), sotorasib (NSC818433), MRTX1133 (NSC 836407), abemaciclib (NSC 768073), palbociclib (NSC758247), venetoclax (NSC 766270), SY5609 (NSC837396), enzalutamide (NSC755605), and darolutamide (NSC825331), were obtained from the National Cancer Institute (NCI) Developmental Therapeutics Program Chemical Repository. The FDA-approved anticancer drug set is available from the NCI Developmental Therapeutics Program. […] The stock solutions were prepared in dimethyl sulfoxide (DMSO, Sigma-Aldrich, St. Louis, MO, cat. D2650) at 800-fold the tested concentration and stored at -70 degrees C prior to their use. All drugs and investigational agents were tested over a range starting from a high concentration at or near the clinical Cmax and decreasing in half-log increments. If the clinical Cmax for an agent had not been determined, the highest concentration tested was 10 microM.
Cell Culture. All cells were maintained in an incubator at 37 degrees C and 5% CO2 with 95% humidity. The PDC lines were cultured according to standard operating procedures established by the NCI PDMR (https://pdmr.cancer.gov/sops/default.htm). All PDCs were thawed and cultured in Matrigel-coated flasks prepared with a working solution of 1X Ham's F-12 nutrient mix, without supplementation (Invitrogen, Waltham, MA, cat. 11765054), 100 U/mL penicillin-streptomycin (Invitrogen, cat. 15140122), and 2.5% Matrigel (Corning Inc., Corning, NY, cat. 354248) for the first three passages. The 354836-022-R-J1-PDC, 475296-252-R-J1-PDC, and 997726-040-R-J2-PDC lines were cultured in 6A media, which includes advanced DMEM/F-12 (Thermo Fisher Scientific, cat. 12634028), 10 mM HEPES (Thermo Fisher Scientific, cat. 15630080), 1X GlutaMAX supplement (Thermo Fisher Scientific, cat. 35050061), 0.1 mg/mL primocin (InvivoGen, San Diego, CA, cat. ant-pm-2), 10% defined fetal bovine serum, heat inactivated (HyClone Laboratories Inc., Logan, UT, cat. SH30070.03HI), 50% L-WRN conditioned media (ATCC, cat. CRL-3276), 1.25 mM N-Acetyl-L-cysteine (Sigma-Aldrich, cat. A9165), 10 mM nicotinamide (Sigma-Aldrich, cat. N0636), 1X B-27 supplement (Thermo Fisher Scientific, cat. 17504044), 1X N-2 supplement (Thermo Fisher Scientific, cat. 17502048), and 10 microM Y-27632 dihydrochloride (Tocris Bioscience, Bristol, United Kingdom, cat. 1254). The 624824-186-R-J2-PDC line was cultured in 6C/Colon 1B media, which includes all 6A media components plus 50 ng/mL human EGF recombinant protein (Thermo Fisher Scientific, cat. PHG0311). […]

[1] = second compound 0.00316 µM, first compound 0.0316 µM
[2] = second compound 0.00316 µM, first compound 0.1 µM
[3] = second compound 0.00316 µM, first compound 0.316 µM
[4] = second compound 0.00316 µM, first compound 1 µM
[5] = second compound 0.00316 µM, first compound 3.16 µM
[6] = second compound 0.00316 µM, first compound 10 µM
[7] = second compound 0.01 µM, first compound 0.0316 µM
[8] = second compound 0.01 µM, first compound 0.1 µM
[9] = second compound 0.01 µM, first compound 0.316 µM
[10] = second compound 0.01 µM, first compound 1 µM
[11] = second compound 0.01 µM, first compound 3.16 µM
[12] = second compound 0.01 µM, first compound 10 µM
[13] = second compound 0.0316 µM, first compound 0.0316 µM
[14] = second compound 0.0316 µM, first compound 0.1 µM
[15] = second compound 0.0316 µM, first compound 0.316 µM
[16] = second compound 0.0316 µM, first compound 1 µM
[17] = second compound 0.0316 µM, first compound 3.16 µM
[18] = second compound 0.0316 µM, first compound 10 µM
[19] = second compound 0.1 µM, first compound 0.0316 µM
[20] = second compound 0.1 µM, first compound 0.1 µM
[21] = second compound 0.1 µM, first compound 0.316 µM
[22] = second compound 0.1 µM, first compound 1 µM
[23] = second compound 0.1 µM, first compound 3.16 µM
[24] = second compound 0.1 µM, first compound 10 µM
[25] = second compound 0.316 µM, first compound 0.0316 µM
[26] = second compound 0.316 µM, first compound 0.1 µM
[27] = second compound 0.316 µM, first compound 0.316 µM
[28] = second compound 0.316 µM, first compound 1 µM
[29] = second compound 0.316 µM, first compound 3.16 µM
[30] = second compound 0.316 µM, first compound 10 µM
[31] = second compound 1 µM, first compound 0.0316 µM
[32] = second compound 1 µM, first compound 0.1 µM
[33] = second compound 1 µM, first compound 0.316 µM
[34] = second compound 1 µM, first compound 1 µM
[35] = second compound 1 µM, first compound 3.16 µM
[36] = second compound 1 µM, first compound 10 µM
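Further: spheroids exposed to agents for seven days before luminescence read.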
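Wherever viability, T/C is given: luminescent signal used as a stand-in for spheroid viability; percent viability relative to DMSO vehicle control wells taken as 100%.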

In the case of `C=CC(=O)N1CCN(c2nc(=O)n(-c3c(C)ccnc3C(C)C)c3nc(-c4c(O)cccc4F)c(F)cc23)C(C)C1` (stereo unspecified) + CC(Nc1ccc2c(c1)OCCn1cc(N3C(=O)OCC3C(F)F)nc1-2)C(N)=O, the IC50 (second compound 0.00316 µM) is reported as > 10 µM, the IC50 (second compound 0.01 µM) is reported as > 10 µM and the IC50 (second compound 0.0316 µM) is reported as > 10 µM. For the same compound, the IC50 (second compound 0.1 µM) was > 10 µM, the IC50 (second compound 0.316 µM) was > 10 µM and the IC50 (second compound 1 µM) was > 10 µM. For the same compound, the viability, T/C [1] was 103%, the viability, T/C [2] was 94.4% and the viability, T/C [3] was 98.8%. It also gave a viability, T/C [4] of 88.2%, a viability, T/C [5] of 99.7% and a viability, T/C [6] of 105%. It also gave a viability, T/C [7] of 105%, a viability, T/C [8] of 99.2% and a viability, T/C [9] of 96.9%. It also gave a viability, T/C [10] of 94%, a viability, T/C [11] of 99.6% and a viability, T/C [12] of 106%. The viability, T/C [13] was 97%, the viability, T/C [14] was 98.5% and the viability, T/C [15] was 102%. The viability, T/C [16] was 96%, the viability, T/C [17] was 113% and the viability, T/C [18] was 99.6%. For the same compound, the viability, T/C [19] was 91.7%, the viability, T/C [20] was 97.2% and the viability, T/C [21] was 107%. It also gave a viability, T/C [22] of 102%, a viability, T/C [23] of 107% and a viability, T/C [24] of 104%. For the same compound, the viability, T/C [25] was 90.1%, the viability, T/C [26] was 96.8% and the viability, T/C [27] was 94.5%. The viability, T/C [28] was 94%, the viability, T/C [29] was 108% and the viability, T/C [30] was 98.4%. The viability, T/C [31] was 95.1%, the viability, T/C [32] was 83.7% and the viability, T/C [33] was 87.4%. The viability, T/C [34] was 87%, the viability, T/C [35] was 87.4% and the viability, T/C [36] was 91.3%.
`Cn1ncc(Cl)c1-c1cc(C(=O)NC(CN)Cc2cccc(F)c2)sc1Cl` (stereo unspecified) + CC(Nc1ccc2c(c1)OCCn1cc(N3C(=O)OCC3C(F)F)nc1-2)C(N)=O was tested, and the IC50 (second compound 0.00316 µM) was > 10 µM, the IC50 (second compound 0.01 µM) was > 10 µM and the IC50 (second compound 0.0316 µM) was > 10 µM. The IC50 (second compound 0.1 µM) was > 10 µM, the IC50 (second compound 0.316 µM) was > 10 µM and the IC50 (second compound 1 µM) was 3.12 µM. It also gave a viability, T/C [1] of 111%, a viability, T/C [2] of 105% and a viability, T/C [3] of 103%. The viability, T/C [4] was 74.1%, the viability, T/C [5] was 55.4% and the viability, T/C [6] was 80%. For the same compound, the viability, T/C [7] was 103%, the viability, T/C [8] was 99.3% and the viability, T/C [9] was 92.9%. The viability, T/C [10] was 70%, the viability, T/C [11] was 52.4% and the viability, T/C [12] was 84%. For the same compound, the viability, T/C [13] was 104%, the viability, T/C [14] was 99.4% and the viability, T/C [15] was 90.2%. For the same compound, the viability, T/C [16] was 66.7%, the viability, T/C [17] was 49.5% and the viability, T/C [18] was 83.1%. The viability, T/C [19] was 103%, the viability, T/C [20] was 97.3% and the viability, T/C [21] was 91.4%. For the same compound, the viability, T/C [22] was 69.2%, the viability, T/C [23] was 51.4% and the viability, T/C [24] was 79.2%. For the same compound, the viability, T/C [25] was 100%, the viability, T/C [26] was 93% and the viability, T/C [27] was 88.5%. For the same compound, the viability, T/C [28] was 64.1%, the viability, T/C [29] was 42% and the viability, T/C [30] was 62.4%. The viability, T/C [31] was 90.1%, the viability, T/C [32] was 90.6% and the viability, T/C [33] was 76.7%. For the same compound, the viability, T/C [34] was 63.7%, the viability, T/C [35] was 44.3% and the viability, T/C [36] was 50.9%.
Compound `Cn1nccc1Nc1nccc(-c2ccn(C(CO)c3ccc(Cl)c(F)c3)c(=O)c2)n1` (stereo unspecified) + CC(Nc1ccc2c(c1)OCCn1cc(N3C(=O)OCC3C(F)F)nc1-2)C(N)=O has an IC50 (second compound 0.00316 µM) of 8.24 µM, an IC50 (second compound 0.01 µM) of 4.07 µM and an IC50 (second compound 0.0316 µM) of 2.58 µM. It also gave an IC50 (second compound 0.1 µM) of 1.27 µM, an IC50 (second compound 0.316 µM) of 0.628 µM and an IC50 (second compound 1 µM) of 0.341 µM. For the same compound, the viability, T/C [1] was 104%, the viability, T/C [2] was 91.1% and the viability, T/C [3] was 85%. The viability, T/C [4] was 75.9%, the viability, T/C [5] was 58.8% and the viability, T/C [6] was 48.1%. For the same compound, the viability, T/C [7] was 93.9%, the viability, T/C [8] was 93% and the viability, T/C [9] was 90%. For the same compound, the viability, T/C [10] was 65.4%, the viability, T/C [11] was 54.9% and the viability, T/C [12] was 43.9%. For the same compound, the viability, T/C [13] was 97.5%, the viability, T/C [14] was 107% and the viability, T/C [15] was 80.7%. For the same compound, the viability, T/C [16] was 68.2%, the viability, T/C [17] was 46.2% and the viability, T/C [18] was 37.2%. For the same compound, the viability, T/C [19] was 102%, the viability, T/C [20] was 95% and the viability, T/C [21] was 80.6%. It also gave a viability, T/C [22] of 52.2%, a viability, T/C [23] of 36.4% and a viability, T/C [24] of 24.8%. For the same compound, the viability, T/C [25] was 105%, the viability, T/C [26] was 95% and the viability, T/C [27] was 76.6%. The viability, T/C [28] was 31.7%, the viability, T/C [29] was 20.2% and the viability, T/C [30] was 17.4%. The viability, T/C [31] was 84.1%, the viability, T/C [32] was 81.1% and the viability, T/C [33] was 51.9%. It also gave a viability, T/C [34] of 20.5%, a viability, T/C [35] of 15.1% and a viability, T/C [36] of 15.3%.
